Experimental data taken from ChEMBL document CHEMBL1909046, “DrugMatrix in vitro pharmacology data”.

Tests used:
[1] = biological target: T1, Vasoactive intestinal polypeptide receptor 1 (Homo sapiens, UniProt P32241); assay type: cell membranes, Membrane; settings: ht-29; also: in other assays of this panel Not Active means under 50% inhibition at 10 µM
T1 sequence (P32241 whole entry): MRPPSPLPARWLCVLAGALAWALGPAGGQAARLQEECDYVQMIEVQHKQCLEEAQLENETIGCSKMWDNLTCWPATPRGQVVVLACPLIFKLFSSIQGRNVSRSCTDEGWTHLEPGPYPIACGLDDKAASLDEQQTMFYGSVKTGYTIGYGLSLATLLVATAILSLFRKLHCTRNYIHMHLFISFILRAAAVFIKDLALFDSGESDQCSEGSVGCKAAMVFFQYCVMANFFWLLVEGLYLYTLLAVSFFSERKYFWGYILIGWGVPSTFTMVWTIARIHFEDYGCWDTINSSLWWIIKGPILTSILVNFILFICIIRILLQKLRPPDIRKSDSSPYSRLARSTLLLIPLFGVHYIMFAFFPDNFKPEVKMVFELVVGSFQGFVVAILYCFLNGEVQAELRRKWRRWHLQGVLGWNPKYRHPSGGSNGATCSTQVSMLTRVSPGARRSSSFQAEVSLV

[2] = biological target: T2, C-C chemokine receptor type 4 (Homo sapiens, UniProt P51679); assay type: cell membranes, Membrane; settings: chem-1; also: in other assays of this panel Not Active means under 50% inhibition at 10 µM
T2 sequence (P51679 whole entry): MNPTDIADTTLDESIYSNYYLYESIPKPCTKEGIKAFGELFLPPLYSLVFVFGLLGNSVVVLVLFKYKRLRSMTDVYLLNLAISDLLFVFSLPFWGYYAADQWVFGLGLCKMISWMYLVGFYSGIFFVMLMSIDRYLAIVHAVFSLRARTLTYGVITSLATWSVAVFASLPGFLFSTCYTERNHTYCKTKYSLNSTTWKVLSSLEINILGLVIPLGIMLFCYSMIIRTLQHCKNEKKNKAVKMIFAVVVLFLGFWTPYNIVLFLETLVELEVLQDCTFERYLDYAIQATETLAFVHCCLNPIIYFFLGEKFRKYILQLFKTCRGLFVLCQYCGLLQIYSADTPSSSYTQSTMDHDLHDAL

[3] = biological target: Insulin receptor (Rattus norvegicus, UniProt P15127); assay type: cell membranes, Wistar, Liver, Membrane; also: in other assays of this panel Not Active means under 50% inhibition at 10 µM
[4] = DRUGMATRIX: Nicotinic Acetylcholine radioligand binding (ligand: [125I] Epibatidine); assay type: cell membranes, Membrane; settings: imr-32; Not Active = under 50% inhibition at 10 µM
[5] = biological target: T3, Receptor-type tyrosine-protein phosphatase C (Homo sapiens, UniProt P08575); set-up: species or system Escherichia coli;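 also: inhibition of CD45 enzyme activity measured using DiFMUP as substrate; in other assays of this panel Not Active means under 50% inhibition at 10 µM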
T3 sequence (P08575 whole entry): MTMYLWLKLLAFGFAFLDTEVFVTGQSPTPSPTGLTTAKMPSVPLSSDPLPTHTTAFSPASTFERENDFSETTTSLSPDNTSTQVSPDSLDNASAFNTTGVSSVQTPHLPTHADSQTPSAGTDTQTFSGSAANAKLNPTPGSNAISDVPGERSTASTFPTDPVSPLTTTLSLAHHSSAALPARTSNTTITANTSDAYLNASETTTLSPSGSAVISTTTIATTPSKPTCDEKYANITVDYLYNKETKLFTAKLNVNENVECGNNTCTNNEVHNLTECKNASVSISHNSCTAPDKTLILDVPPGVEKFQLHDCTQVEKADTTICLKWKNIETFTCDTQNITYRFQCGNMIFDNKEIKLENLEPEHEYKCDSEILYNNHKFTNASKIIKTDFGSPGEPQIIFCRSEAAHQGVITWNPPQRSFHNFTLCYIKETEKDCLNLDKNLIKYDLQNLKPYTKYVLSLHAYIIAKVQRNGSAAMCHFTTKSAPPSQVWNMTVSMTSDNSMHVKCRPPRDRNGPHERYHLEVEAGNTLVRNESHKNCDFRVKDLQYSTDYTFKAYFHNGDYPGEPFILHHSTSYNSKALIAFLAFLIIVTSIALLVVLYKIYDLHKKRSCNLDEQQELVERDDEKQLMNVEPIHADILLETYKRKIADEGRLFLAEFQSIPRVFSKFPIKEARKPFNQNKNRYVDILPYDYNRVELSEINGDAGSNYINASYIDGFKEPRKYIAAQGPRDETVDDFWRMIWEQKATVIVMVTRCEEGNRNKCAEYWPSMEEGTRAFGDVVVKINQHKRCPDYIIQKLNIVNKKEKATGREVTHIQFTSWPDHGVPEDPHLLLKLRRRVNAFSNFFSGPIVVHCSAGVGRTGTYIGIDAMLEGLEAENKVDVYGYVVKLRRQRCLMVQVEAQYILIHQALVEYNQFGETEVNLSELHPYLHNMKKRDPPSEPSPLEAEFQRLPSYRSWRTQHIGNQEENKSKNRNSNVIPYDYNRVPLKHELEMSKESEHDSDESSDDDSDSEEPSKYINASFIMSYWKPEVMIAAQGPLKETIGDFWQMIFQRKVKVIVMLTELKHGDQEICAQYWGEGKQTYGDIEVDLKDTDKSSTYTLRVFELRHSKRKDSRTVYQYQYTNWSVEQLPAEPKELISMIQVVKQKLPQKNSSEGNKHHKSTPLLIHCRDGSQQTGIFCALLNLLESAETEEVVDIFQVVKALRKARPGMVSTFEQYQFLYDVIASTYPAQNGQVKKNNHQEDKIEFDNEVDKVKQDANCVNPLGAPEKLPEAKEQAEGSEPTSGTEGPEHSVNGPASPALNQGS

[6] = DRUGMATRIX: Purinergic P2X radioligand binding (ligand: [3H] alpha, beta-Methylene-ATP); assay type: cell membranes, Oryctolagus cuniculus, New Zealand albino, Urinary bladder, Membrane; settings: Not Active = under 50% inhibition at 10 µM
[7] = biological target: T4, Estrogen receptor (Homo sapiens, UniProt P03372); settings: sf9; also: in other assays of this panel Not Active means under 50% inhibition at 10 µM
T4 sequence (P03372 whole entry): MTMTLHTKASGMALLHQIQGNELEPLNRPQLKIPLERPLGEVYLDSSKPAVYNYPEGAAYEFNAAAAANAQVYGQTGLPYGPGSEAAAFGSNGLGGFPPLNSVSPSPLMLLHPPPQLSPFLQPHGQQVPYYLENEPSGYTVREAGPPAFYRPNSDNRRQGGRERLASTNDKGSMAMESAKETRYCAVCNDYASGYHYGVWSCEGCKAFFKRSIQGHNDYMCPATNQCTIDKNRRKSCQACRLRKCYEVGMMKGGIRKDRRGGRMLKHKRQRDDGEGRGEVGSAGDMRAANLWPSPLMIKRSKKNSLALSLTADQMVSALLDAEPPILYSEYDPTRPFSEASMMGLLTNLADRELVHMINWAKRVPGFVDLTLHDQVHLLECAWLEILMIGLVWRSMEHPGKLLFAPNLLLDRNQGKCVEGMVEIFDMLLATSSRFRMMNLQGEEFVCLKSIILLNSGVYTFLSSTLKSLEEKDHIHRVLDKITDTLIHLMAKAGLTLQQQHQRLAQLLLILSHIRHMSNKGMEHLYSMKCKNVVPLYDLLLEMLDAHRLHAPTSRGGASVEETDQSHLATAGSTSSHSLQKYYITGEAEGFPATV

Sequence of Insulin receptor (P15127 27-759 limits assumed): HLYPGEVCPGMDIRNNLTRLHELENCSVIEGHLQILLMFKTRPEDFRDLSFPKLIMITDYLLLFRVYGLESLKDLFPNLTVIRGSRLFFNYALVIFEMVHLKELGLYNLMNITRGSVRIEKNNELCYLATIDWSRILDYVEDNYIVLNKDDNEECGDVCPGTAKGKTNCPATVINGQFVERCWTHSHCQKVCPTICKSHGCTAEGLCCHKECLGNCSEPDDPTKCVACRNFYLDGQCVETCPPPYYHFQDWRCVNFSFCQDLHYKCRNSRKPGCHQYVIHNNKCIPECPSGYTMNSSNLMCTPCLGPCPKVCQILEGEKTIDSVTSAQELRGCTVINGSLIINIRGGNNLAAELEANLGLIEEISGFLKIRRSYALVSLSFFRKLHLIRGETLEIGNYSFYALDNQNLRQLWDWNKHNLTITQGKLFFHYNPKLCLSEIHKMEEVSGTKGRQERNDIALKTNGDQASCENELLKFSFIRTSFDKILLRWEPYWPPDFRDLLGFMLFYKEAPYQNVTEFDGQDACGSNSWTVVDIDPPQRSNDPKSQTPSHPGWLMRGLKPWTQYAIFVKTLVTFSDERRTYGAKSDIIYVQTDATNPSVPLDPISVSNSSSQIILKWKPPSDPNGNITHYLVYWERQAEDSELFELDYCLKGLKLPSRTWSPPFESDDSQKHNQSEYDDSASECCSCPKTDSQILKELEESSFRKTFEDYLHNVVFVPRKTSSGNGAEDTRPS
Sequence of Insulin receptor (P15127 764-1383 limits assumed): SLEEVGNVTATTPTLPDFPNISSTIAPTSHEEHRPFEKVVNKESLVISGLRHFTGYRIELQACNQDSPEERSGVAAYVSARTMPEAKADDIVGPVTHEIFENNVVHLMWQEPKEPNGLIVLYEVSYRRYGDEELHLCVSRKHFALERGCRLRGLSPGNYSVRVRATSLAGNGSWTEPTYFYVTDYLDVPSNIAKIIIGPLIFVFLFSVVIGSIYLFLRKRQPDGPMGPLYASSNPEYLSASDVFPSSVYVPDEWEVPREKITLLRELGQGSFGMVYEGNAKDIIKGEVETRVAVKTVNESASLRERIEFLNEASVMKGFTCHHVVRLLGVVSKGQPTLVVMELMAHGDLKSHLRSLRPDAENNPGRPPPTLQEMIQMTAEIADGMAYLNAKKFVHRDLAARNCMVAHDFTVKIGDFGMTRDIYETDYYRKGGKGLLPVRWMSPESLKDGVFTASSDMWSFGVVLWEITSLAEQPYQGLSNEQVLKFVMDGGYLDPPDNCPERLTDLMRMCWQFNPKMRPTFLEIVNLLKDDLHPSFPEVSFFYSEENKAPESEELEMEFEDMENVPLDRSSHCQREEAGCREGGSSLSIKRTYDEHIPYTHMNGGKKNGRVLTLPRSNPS

CC(=O)[C@H]1[C@H](C#N)C[C@H]2[C@@H]3CC=C4C[C@@H](O)CC[C@]4(C)[C@H]3CC[C@@]21C [PREGNENOLONE CARBONITRILE]
Not Active: IC50 [1] | IC50 [2] | IC50 [3] | IC50 [4] | Ki [4] | IC50 [5] | IC50 [6] | Ki [6] | IC50 [7]

CC[C@H](C)[C@H]1O[C@]2(C=C[C@@H]1C)C[C@@H]1C[C@@H](C/C=C(\C)[C@@H](O[C@H]3C[C@H](OC)[C@@H](O[C@H]4C[C@H](OC)[C@@H](O)[C@H](C)O4)[C@H](C)O3)[C@@H](C)/C=C/C=C3\CO[C@@H]4[C@H](O)C(C)=C[C@@H](C(=O)O1)[C@]34O)O2.CO[C@H]1C[C@H](O[C@H]2[C@H](C)O[C@@H](O[C@@H]3/C(C)=C/C[C@@H]4C[C@@H](C[C@]5(C=C[C@H](C)[C@@H](C(C)C)O5)O4)OC(=O)[C@@H]4C=C(C)[C@@H](O)[C@H]5OC/C(=C\C=C\[C@@H]3C)[C@]54O)C[C@@H]2OC)O[C@@H](C)[C@@H]1O [ABAMECTIN]
Not Active: IC50 [1] | IC50 [2] | IC50 [3] | IC50 [4] | Ki [4] | IC50 [5] | IC50 [6] | Ki [6] | IC50 [7]

Nc1ccn([C@@H]2O[C@H](CO)[C@@H](O)[C@@H]2O)c(=O)n1 [CYTARABINE]
Not Active: IC50 [1] | IC50 [2] | IC50 [3] | IC50 [4] | Ki [4] | IC50 [5] | IC50 [6] | Ki [6] | IC50 [7]

CC(C)c1cccc(C(C)C)c1O [PROPOFOL]
Not Active: IC50 [1] | IC50 [2] | IC50 [3] | IC50 [4] | Ki [4] | IC50 [5] | IC50 [6] | Ki [6] | IC50 [7]

NYSTATIN
Not Active: IC50 [1] | Ki [1] | IC50 [2] | Ki [2] | IC50 [3] | Ki [3] | IC50 [4] | Ki [4] | IC50 [5] | Ki [5] | IC50 [6] | Ki [6] | IC50 [7] | Ki [7]

Cc1cc2c(OCC(CNC(C)(C)C)OC(=O)c3ccccc3)cccc2[nH]1 (stereo not given) [BOPINDOLOL]
Not Active: IC50 [1] | IC50 [2] | IC50 [3] | IC50 [4] | Ki [4] | IC50 [5] | IC50 [6] | Ki [6] | IC50 [7]

CC(=O)Oc1ccc(C(c2ccc(OC(C)=O)cc2)c2ccccn2)cc1 [BISACODYL]
Not Active: IC50 [1] | IC50 [2] | IC50 [3] | IC50 [4] | Ki [4] | IC50 [5] | IC50 [6] | Ki [6] | IC50 [7]

CC(=O)O[C@H]1C(=O)[C@@]2(C)[C@H]([C@H](OC(=O)c3ccccc3)[C@]3(O)C[C@H](OC(=O)[C@H](O)[C@@H](NC(=O)c4ccccc4)c4ccccc4)C(C)=C1C3(C)C)[C@]1(OC(C)=O)CO[C@@H]1C[C@@H]2O [PACLITAXEL]
Not Active: IC50 [1] | IC50 [2] | IC50 [3] | IC50 [4] | Ki [4] | IC50 [5] | IC50 [6] | Ki [6] | IC50 [7]

Nc1ccn([C@@H]2O[C@H](CO)[C@@H](O)C2(F)F)c(=O)n1 [GEMCITABINE]
Not Active: IC50 [1] | IC50 [2] | IC50 [3] | IC50 [4] | Ki [4] | IC50 [5] | IC50 [6] | Ki [6] | IC50 [7]

COc1cc(N)c(Cl)cc1C(=O)NC1CCN(CCCOc2ccc(F)cc2)CC1OC (stereo not given) [CISAPRIDE]
Not Active: IC50 [1] | IC50 [2] | IC50 [3] | IC50 [4] | Ki [4] | IC50 [5] | IC50 [6] | Ki [6] | IC50 [7]

O=C(O)c1cccnc1Nc1cccc(C(F)(F)F)c1 [NIFLUMIC ACID]
Not Active: IC50 [1] | IC50 [2] | IC50 [3] | IC50 [4] | Ki [4] | IC50 [5] | IC50 [6] | Ki [6] | IC50 [7]

GENTAMICIN
Not Active: IC50 [1] | Ki [1] | IC50 [2] | Ki [2] | IC50 [3] | Ki [3] | IC50 [4] | Ki [4] | IC50 [5] | Ki [5] | IC50 [6] | Ki [6] | IC50 [7] | Ki [7]

C=CCc1ccc(O)c(OC)c1 [EUGENOL]
Not Active: IC50 [1] | IC50 [2] | IC50 [3] | IC50 [4] | Ki [4] | IC50 [5] | IC50 [6] | Ki [6] | IC50 [7]

COc1ccc2[nH]cc(CCNC(C)=O)c2c1 [MELATONIN]
Not Active: IC50 [1] | IC50 [2] | IC50 [3] | IC50 [4] | Ki [4] | IC50 [5] | IC50 [6] | Ki [6] | IC50 [7]

COc1cc2nc(N3CCN(C(=O)c4ccco4)CC3)nc(N)c2cc1OC [PRAZOSIN]
Not Active: IC50 [1] | IC50 [2] | IC50 [3] | IC50 [4] | Ki [4] | IC50 [5] | IC50 [6] | Ki [6] | IC50 [7]
